Assays:
lens elasticity [1] = test: Pharmacological Test-1: lens elasticity after instillation 3 times per day for 12 to 15 days; type: in vivo, C57BL/6J mice; conditions: for Lens elasticity improvement: 0.03% (w/v) solution, 2.5 μL/eye, right eye, 3 times per day for 12 to 15 days, 8-month-old mice, vs vehicle control; for lens elasticity improving effect: at a concentration of 0.03%
Procedure: The effects of compounds 1 to 4 on the lens elasticity were examined. The tests were conducted with reference to the methods described in Invest Ophthalmol Vis Sci, 57, 2851-2863, 2016.
A vehicle (aqueous solution) comprising 0.1% (w/v) of ethyl pyruvate, 0.269% (w/v) of sodium dihydrogenphosphate monohydrate (NaH2PO4.H2O), 0.433% (w/v) of di sodium hydrogenphosphate (Na2HPO4), 0.2% (w/v) of hydroxypropyl methylcellulose, 0.5% (w/v) of NaCl, 1.0% (w/v) of polyoxyl 35 castor oil (hereinafter also referred to as “CO35”), and purified water (appropriate amount) was prepared.
Each of compounds 1 to 4 was stirred with the addition of the vehicle to give a 0.03% (w/v) solution.
EV06 was stirred with the addition of the vehicle to give a 0.03% (w/v) solution. (Test method) 1) Each test sample (2.5 μL/eye) was instilled into the right eye of 8-month-old C57BL/6J mice with a Pipetman 3 times per day (around 9:00, 13:00, 17:00) for 12 to 15 days. 2) After the final instillation, the mice were euthanized by carbon dioxide inhalation, and then the eyeballs were extracted and rinsed with Hank's balanced salt solution (HESS). 3) The sclera near the optic nerve was cut with a razor, the lens was removed through the incision, and the removed lens was immersed in HESS. 4) The lens was placed on a glass slide, and an all-in-one fluorescence microscope BZ-9000 (Keyence) was used to capture an image of the lens (Image a). 5) Next, one cover glass (Corning^registered trade mark) 22×22 mm Square) was placed on the lens, and an image in which the thickness of the lens changed due to the weight was similarly captured (Image b). 6) A change in the lens diameter was calculated from the following Equation 1 wherein the lens diameter of Image a is subtracted from the lens diameter of Image b. Then, the lens elasticity improvement of each sample group compared with the vehicle control group was calculated from Equation 2 described below. The mean value of the vehicle control group was based on 5 eyes, the mean value of each of the sample groups of compounds 1 to 4 was based on 10 eyes, and the mean value of EV06 sample group was based on 9 eyes.
Change in lens diameter=Lens diameter in Image b of each test sample−Lens diameter in Image a of each test sample (Equation 1)
Lens elasticity improvement of each sample group=Mean change in lens diameter of each Test sample group−Mean change in lens diameter of Vehicle control group (Equation 2)

lens elasticity [2] = test: Pharmacological Test-2: lens elasticity at different concentrations, instillation 3 times per day for 12 to 15 days; type: in vivo, C57BL/6J mice; conditions: for Lens elasticity improvement: 3 times per day for 12 to 15 days; for lens elasticity improvement compared with 1.5% EV06 group: 0.03% and 0.3% sample groups
Procedure: The effects of Compounds 1, 3, and 4 on the lens elasticity were investigated at different concentrations.
(§1) Vehicle A (aqueous solution) comprising 0.1% (w/v) of ethyl pyruvate, 0.269% (w/v) of sodium dihydrogenphosphate monohydrate (NaH2PO4.H2O), 0.433% (w/v) of disodium hydrogenphosphate (Na2HPO4), 0.2% (w/v) of hydroxypropyl methylcellulose, 0.5% (w/v) of NaCl, 0.2% (w/v) of 0035, and purified water (appropriate amount) was prepared.
as §1, with “B (emulsion)” for “A (aqueous solution)”, “CO35, 0.6% benzyl benzoate,” for “0035,”
as §1, with “Vehicle C” for “Vehicle A”, “NaCl, 1.0%” for “NaCl, 0.2%”
as §1, with “Vehicle D (emulsion)” for “Vehicle A (aqueous solution)”, “NaCl, 1.0%” for “NaCl, 0.2%”, “of CO35, 3.0% benzyl benzoate,” for “of 0035,”
A diluent (aqueous solution) comprising 0.1% (w/v) of ethyl pyruvate, 0.269% (w/v) of sodium dihydrogenphosphate monohydrate (NaH2PO4.H2O), 0.433% (w/v) of disodium hydrogenphosphate (Na2HPO4), 0.2% (w/v) of hydroxypropyl methylcellulose, 0.5% (w/v) of NaCl, and purified water (appropriate amount) was prepared.
Compound 1 was stirred with the addition of Vehicle C to prepare a 1.5% (w/v) emulsion, and the emulsion was diluted with the diluent to give a 0.3% (w/v) emulsion. Further, the resulting 0.3% (w/v) emulsion was diluted with the diluent to give a 0.03% (w/v) emulsion. Further, the resulting 0.03% (w/v) emulsion was diluted with the diluent to give a 0.003% (w/v) emulsion.
Compound 3 was stirred with the addition of Vehicle C to give a 1.5% (w/v) solution, and the resulting solution was diluted to give a 0.3% (w/v) solution. Further, the resulting 0.3% (w/v) solution was diluted with Vehicle A to give a 0.03% (w/v) solution. Further, the resulting 0.03% (w/v) solution was diluted with Vehicle A to give a 0.003% (w/v) solution.
Compound 4 was stirred with the addition of Vehicle D to give a 1.5% (w/v) emulsion, and the resulting emulsion was diluted with the diluent to prepare a 0.3% (w/v) emulsion. Further, the resulting 0.3% (w/v) emulsion was diluted with the diluent to give a 0.03% (w/v) emulsion. Further, the resulting 0.03% (w/v) emulsion was diluted with the diluent to give a 0.003% (w/v) emulsion.
EV06 was stirred with the addition of Vehicle A to give a 1.5% (w/v) solution, which was used for comparison to the samples of Compound 1 and 3.
EV06 was sonicated with the addition of Vehicle B to give a 1.5% (w/v) emulsion, which was used for comparison to Compound 4 sample.
(Test method) 1) Each test sample (2.5 μL/eye) was instilled into the right eye of 7 to 8-month-old C57BL/6J mice with a Pipetman 3 times per day (around 9:00, 13:00 and 17:00) for 12 to 15 days. 2) After the final instillation, the mice were euthanized by carbon dioxide inhalation, and then the eyeballs were extracted and rinsed with Hank's balanced salt solution (HESS). 3) The sclera near the optic nerve was cut with a razor, the lens was removed through the incision, and the removed lens was immersed in HESS. 4) The lens was placed on a glass slide, and an all-in-one fluorescence microscope BZ-9000 (Keyence) was used to capture an image of the lens (Image a). […]

[3] = 0.003% (w/v) sample, 7 to 8-month-old mice
[4] = 0.03% (w/v) sample, 7 to 8-month-old mice
[5] = 0.3% (w/v) sample, 7 to 8-month-old mice

Row | SMILES | Lens elasticity improvement (lens elasticity [1]) [μm] | lens elasticity improving effect (lens elasticity [1]) | Lens elasticity improvement (lens elasticity [2]; [3]) [μm] | Lens elasticity improvement (lens elasticity [2]; [4]) [μm] | lens elasticity improvement compared with 1.5% EV06 group (lens elasticity [2]) | Lens elasticity improvement (lens elasticity [2]; [5]) [μm] | Lens elasticity improvement (lens elasticity [2]; 1.5% (w/v) emulsion in Vehicle B, Table 4 (comparison to Compound 4)) [μm] | Lens elasticity improvement (lens elasticity [2]; 1.5% (w/v) solution in Vehicle A, Table 2 (comparison to Compound 1)) [μm] | Lens elasticity improvement (lens elasticity [2]; 1.5% (w/v) solution in Vehicle A, Table 3 (comparison to Compound 3)) [μm]
1 | CC(C)=CCOC(=O)CCCC[C@@H]1CCSS1 [Compound 1, 3-Methyl-2-buten-1-yl (R)-5-(1,2-dithiolan-3-yl)pentanoate] | 48.0 | potent lens elasticity improving effect | 13.0 | 37.1 | equivalent to or better than 1.5% EV06 group | 36.8 | – | – | –
2 | O=C(CCCC[C@@H]1CCSS1)OCCN1CCN(CCO)CC1 [Compound 3] | 49.9 | potent lens elasticity improving effect | 1.3 | 30.7 | equivalent to or better than 1.5% EV06 group | 41.8 | – | – | –
3 | C[N+](C)(C)CCOC(=O)CCCC[C@@H]1CCSS1.[Cl-] [EV06, Lipoic acid choline ester, reference compound] | 4.0 | did not show lens elasticity improving effect | – | – | – | – | 46.8 | 30.8 | 18.2

From patent publication US20220151989A1, “LIPOIC ACID PRODRUG” (SANTEN PHARMACEUTICAL CO., LTD., priority 2019, published 2022)
